# Results from ChEMBL document CHEMBL1201862, “PubChem BioAssay data set” (2004).
# Activity calls are given as the source filed them.
# Columns and labels:
# Protein RecA = molecular target: T1, Protein RecA (Mycobacterium tuberculosis, UniProt P9WHJ3); experiment: Fluorescence Cell-Free Homogeneous Dose Retest to Identify Inhibitors of RecA-Intein Splicing Activity. [Related pubchem assays (depositor defined):AID2097, AID2223, AID489010, AID492950]; assay type: functional
# T1 sequence (P9WHJ3 whole entry): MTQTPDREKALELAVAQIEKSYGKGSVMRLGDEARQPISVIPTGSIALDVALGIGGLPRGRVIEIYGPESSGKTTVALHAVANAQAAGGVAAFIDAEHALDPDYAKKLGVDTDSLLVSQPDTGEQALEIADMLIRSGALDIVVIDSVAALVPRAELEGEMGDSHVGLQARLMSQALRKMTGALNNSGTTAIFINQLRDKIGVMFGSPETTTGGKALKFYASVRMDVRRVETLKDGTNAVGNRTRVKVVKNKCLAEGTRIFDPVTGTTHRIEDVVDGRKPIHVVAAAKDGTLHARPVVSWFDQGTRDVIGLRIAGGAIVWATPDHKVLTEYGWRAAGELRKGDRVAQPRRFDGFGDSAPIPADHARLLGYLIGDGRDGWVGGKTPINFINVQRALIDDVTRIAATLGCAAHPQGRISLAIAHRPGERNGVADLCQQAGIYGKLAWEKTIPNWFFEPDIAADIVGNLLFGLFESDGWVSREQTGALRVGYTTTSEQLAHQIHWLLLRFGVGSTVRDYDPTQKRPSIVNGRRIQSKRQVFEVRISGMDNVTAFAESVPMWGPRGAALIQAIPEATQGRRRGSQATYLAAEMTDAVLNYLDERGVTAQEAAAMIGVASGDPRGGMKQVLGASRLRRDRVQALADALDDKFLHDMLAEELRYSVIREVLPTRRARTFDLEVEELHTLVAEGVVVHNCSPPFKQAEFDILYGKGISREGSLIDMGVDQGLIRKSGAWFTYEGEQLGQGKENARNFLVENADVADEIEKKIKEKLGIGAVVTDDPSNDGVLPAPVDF
# [1] = molecular target: T2, Replicative DNA helicase DnaB (Mycobacterium tuberculosis, UniProt P9WMR3); experiment: DnaB intein splicing inhibitors, dose response, biochemical, cell-free fluorescence (AID 449749); assay type: functional
# T2 sequence (P9WMR3 whole entry): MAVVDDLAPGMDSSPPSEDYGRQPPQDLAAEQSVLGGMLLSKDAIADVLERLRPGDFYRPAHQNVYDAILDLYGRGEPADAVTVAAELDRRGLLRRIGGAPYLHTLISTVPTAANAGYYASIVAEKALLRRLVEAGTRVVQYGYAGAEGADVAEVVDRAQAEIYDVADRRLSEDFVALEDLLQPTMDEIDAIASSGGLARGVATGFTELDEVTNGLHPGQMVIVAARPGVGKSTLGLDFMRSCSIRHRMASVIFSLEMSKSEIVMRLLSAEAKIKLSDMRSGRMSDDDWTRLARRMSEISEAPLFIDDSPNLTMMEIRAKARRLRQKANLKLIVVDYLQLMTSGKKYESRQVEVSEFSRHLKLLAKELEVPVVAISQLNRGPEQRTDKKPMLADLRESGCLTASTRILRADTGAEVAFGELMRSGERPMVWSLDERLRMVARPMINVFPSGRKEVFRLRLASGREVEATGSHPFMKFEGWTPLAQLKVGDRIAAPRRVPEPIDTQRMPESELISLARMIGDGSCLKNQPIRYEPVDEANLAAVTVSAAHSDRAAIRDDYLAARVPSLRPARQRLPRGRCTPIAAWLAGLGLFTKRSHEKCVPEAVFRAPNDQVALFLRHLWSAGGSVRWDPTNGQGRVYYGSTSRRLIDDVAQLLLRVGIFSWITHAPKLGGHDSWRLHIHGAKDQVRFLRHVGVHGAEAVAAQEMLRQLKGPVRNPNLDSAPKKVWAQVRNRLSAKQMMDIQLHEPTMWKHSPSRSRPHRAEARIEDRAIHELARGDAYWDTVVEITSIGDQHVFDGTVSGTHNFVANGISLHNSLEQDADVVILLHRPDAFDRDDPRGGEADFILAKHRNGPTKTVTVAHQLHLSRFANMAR
# [2] = molecular target: Mitochondrial peptide methionine sulfoxide reductase (Bos taurus, UniProt P54149); experiment: Absorbance-based biochemical high throughput dose response assay for activators of Methionine sulfoxide reductase A (MsrA).; assay type: functional
# Chain of Mitochondrial peptide methionine sulfoxide reductase (P54149 whole entry): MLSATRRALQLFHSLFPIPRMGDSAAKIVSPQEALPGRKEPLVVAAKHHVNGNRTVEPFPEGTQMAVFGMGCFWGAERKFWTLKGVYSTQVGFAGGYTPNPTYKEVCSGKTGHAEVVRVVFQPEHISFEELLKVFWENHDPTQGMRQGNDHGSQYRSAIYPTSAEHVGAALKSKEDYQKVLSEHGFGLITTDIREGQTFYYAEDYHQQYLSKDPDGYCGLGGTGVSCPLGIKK
# Interleukin-8 [3] = molecular target: T3, Interleukin-8 (Homo sapiens, UniProt P10145); experiment: Dose Response confirmation of uHTS small molecule hits for cystic fibrosis induced NFkb Inhibitors in a PAF-induced IL8 counterscreen.; assay type: functional; details: read-out: IC50_Mean
# T3 sequence (P10145 whole entry): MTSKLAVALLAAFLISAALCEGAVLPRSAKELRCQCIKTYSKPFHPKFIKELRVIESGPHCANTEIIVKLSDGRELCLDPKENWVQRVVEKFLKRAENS
# Interleukin-8 [4] = molecular target: T3, Interleukin-8; experiment: Dose Response confirmation of uHTS small molecule hits for cystic fibrosis induced NFkb Inhibitors in a TNFa-induced IL8 counterscreen.; assay type: functional; details: read-out: IC50_Mean
# [5] = molecular target: T4, Microphthalmia-associated transcription factor (Homo sapiens, UniProt O75030); experiment: TRPM1 promoter luciferase signal decrease, dose response, MITF inhibitor project, cell-based, SK-MEL-5, cherry-picked, set 3 (AID 493073); assay type: functional
# T4 sequence (O75030 whole entry): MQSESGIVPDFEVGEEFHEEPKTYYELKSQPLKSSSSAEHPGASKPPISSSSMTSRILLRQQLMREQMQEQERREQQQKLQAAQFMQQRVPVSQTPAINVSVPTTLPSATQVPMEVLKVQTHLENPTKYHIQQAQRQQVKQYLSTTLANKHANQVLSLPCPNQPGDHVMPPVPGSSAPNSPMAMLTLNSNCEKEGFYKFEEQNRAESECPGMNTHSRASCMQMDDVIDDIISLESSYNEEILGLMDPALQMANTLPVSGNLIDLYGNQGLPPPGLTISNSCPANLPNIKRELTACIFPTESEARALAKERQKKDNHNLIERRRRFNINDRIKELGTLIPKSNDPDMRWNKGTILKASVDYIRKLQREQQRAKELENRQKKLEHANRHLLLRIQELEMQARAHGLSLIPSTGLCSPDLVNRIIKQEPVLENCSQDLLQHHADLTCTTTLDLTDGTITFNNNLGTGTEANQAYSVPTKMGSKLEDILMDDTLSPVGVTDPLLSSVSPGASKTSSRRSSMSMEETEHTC
# [6] = Shn3 3'UTR reporter inhibitors, dose response, cell-based, Clone20 osteoblasts, firefly luciferase, cherry-picked (AID 624132); assay type: functional;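 also: firefly luciferase luminescence from reporter carrying the Shn3 3'UTR in osteoblasts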
# [7] = cytotoxicity in HEK-293T cells, dose response, cytotoxicity control for BCR NF-kB inhibitor project, luminescence, B-cell screen hits (AID 489021); assay type: functional, cell-based;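 also: HEK-293T cells carrying an NF-kB luciferase reporter; cells exposed to compound for about 14 hours before viability readout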
# [8] = control 3'UTR Renilla luciferase suppression, dose response, counter-screen for Shn3 inhibitor project, cell-based, Clone20-Shn3RL, cherry-picked (AID 624133); assay type: functional
# [9] = HepG2 cell cytotoxicity, dose response, cytotoxicity control for Shn3 inhibitor project, CellTiter-Glo, cherry-picked (AID 624134); assay type: functional, cell-based
# [10] = molecular target: Platelet-activating factor acetylhydrolase (Mus musculus, UniProt Q60963); experiment: Late stage assay provider results from the probe development effort to identify inhibitors of pPAFAH: fluorescence-based dose-response biochemical gel-based competitive Activity-Based Protein Profiling (ABPP) assay for SAR compounds.; assay type: functional
# Chain of Platelet-activating factor acetylhydrolase (Mus musculus, UniProt Q60963) (Q60963 whole entry, the tested form may be a part): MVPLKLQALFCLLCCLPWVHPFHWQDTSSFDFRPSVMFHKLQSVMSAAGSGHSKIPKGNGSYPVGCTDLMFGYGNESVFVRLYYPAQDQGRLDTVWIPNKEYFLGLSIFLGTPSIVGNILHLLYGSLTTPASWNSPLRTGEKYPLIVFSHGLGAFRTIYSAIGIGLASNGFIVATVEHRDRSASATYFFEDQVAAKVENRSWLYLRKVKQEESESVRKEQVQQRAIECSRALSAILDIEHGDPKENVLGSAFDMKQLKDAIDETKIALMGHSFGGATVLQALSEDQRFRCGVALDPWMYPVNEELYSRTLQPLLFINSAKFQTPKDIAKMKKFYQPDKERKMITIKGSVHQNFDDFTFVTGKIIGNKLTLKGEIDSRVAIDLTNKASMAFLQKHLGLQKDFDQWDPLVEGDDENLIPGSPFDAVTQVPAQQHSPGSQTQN
# [11] = molecular target: Disintegrin and metalloproteinase domain-containing protein 17 (Homo sapiens, UniProt P78536); experiment: exosite inhibitors of ADAM17, dose response, biochemical (AID 743260)
# Chain of Disintegrin and metalloproteinase domain-containing protein 17 (P78536 whole entry, the tested form may be a part): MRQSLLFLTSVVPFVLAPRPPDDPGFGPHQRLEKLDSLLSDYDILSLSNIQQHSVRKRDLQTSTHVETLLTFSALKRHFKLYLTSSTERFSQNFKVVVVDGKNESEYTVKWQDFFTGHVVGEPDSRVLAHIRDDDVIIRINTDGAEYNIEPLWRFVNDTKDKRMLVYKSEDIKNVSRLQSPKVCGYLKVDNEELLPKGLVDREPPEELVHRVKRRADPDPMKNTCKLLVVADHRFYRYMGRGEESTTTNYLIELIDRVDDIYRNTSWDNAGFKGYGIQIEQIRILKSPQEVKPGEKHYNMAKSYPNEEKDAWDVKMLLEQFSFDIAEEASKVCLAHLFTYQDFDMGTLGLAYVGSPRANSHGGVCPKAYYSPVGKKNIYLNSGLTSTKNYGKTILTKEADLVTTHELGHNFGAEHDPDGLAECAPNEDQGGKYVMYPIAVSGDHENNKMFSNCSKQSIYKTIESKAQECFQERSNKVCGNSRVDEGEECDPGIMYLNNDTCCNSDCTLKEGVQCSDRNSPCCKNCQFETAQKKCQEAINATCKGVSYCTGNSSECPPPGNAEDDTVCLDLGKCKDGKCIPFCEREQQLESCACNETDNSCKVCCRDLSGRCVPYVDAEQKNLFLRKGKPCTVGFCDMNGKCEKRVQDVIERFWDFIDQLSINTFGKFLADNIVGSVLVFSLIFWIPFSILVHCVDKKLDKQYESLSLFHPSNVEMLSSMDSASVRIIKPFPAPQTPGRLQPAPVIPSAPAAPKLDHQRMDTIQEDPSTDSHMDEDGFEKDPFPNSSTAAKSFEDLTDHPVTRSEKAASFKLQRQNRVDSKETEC
# [12] = molecular target: Platelet-activating factor acetylhydrolase (Homo sapiens, UniProt Q13093); experiment: Late stage assay provider results from the probe development effort to identify inhibitors of plasma platelet activating factor acetylhydrolase (pPAFAH): fluorescence-based dose response biochemical gel-based competitive Activity-Based Protein Profiling (ABPP) inhibition of human pPAFAH.; assay type: functional, cell-free
# Chain of Platelet-activating factor acetylhydrolase (Homo sapiens, UniProt Q13093) (Q13093 whole entry): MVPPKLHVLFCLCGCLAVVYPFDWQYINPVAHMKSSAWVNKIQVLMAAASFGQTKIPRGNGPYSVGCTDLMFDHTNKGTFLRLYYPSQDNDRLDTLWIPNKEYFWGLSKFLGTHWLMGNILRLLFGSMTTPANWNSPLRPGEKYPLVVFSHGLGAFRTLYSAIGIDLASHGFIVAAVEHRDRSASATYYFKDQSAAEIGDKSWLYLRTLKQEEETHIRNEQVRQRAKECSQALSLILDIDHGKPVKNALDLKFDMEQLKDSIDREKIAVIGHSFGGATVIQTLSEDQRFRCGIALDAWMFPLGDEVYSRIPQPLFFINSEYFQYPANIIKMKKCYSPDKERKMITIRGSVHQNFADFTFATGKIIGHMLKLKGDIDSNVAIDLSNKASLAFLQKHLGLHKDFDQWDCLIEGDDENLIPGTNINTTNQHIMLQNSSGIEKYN
# [13] = ADAM10 protease inhibitors, dose response, selectivity assay for ADAM17 exosite inhibitor project, biochemical, FRET peptide substrate, recombinant human ADAM10 (AID 743259);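 also: ADAM10 enzyme cleaving a FRET peptide substrate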
# [14] = AlphaScreen signal interference compounds, dose response, artefact control for ARNT-TACC3 interaction inhibitor project, biochemical, luminescence, cherry-pick (AID 651705); assay type: functional;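 also: AlphaScreen bead proximity signal that flags compounds interfering with the detection technology; potency reflects signal decrease which marks the compound as an assay artifact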
# [15] = molecular target: Histone-lysine N-methyltransferase NSD2 (Homo sapiens, UniProt O96028); assay type: biochemical
# Chain of Histone-lysine N-methyltransferase NSD2 (O96028 whole entry): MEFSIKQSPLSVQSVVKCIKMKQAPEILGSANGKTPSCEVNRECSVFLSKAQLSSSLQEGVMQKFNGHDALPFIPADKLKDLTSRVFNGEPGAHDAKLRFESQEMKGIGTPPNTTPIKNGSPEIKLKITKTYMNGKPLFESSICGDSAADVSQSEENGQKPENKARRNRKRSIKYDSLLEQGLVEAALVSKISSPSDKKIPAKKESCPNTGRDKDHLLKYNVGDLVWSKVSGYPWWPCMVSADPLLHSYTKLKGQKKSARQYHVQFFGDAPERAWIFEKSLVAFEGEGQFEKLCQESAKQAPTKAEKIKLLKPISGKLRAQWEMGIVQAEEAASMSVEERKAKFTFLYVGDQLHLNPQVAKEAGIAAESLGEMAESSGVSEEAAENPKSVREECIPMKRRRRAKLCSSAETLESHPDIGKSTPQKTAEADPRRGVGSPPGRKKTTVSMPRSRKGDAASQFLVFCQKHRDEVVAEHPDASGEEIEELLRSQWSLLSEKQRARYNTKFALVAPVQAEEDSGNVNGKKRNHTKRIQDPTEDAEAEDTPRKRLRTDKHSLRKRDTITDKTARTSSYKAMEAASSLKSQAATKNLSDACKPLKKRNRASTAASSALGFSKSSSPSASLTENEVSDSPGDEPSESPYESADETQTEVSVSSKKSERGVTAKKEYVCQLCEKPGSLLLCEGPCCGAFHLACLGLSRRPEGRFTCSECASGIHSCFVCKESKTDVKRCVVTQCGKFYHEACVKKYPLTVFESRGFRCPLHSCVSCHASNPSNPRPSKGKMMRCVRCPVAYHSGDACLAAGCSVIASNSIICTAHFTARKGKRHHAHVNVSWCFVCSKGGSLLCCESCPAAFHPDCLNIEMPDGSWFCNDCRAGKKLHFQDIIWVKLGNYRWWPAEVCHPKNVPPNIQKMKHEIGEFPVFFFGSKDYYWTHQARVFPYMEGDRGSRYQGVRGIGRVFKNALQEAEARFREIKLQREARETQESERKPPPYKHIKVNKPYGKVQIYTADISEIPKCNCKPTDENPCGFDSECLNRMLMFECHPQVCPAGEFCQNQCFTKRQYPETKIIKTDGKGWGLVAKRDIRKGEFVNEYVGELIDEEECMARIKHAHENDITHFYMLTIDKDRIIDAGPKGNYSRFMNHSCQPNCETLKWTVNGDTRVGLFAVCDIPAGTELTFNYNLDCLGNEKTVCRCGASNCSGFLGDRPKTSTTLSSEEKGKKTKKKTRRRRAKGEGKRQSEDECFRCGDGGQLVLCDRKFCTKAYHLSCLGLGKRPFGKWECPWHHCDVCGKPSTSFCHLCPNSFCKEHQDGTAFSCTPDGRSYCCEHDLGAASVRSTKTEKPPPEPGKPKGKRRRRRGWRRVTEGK
# Hexokinase HKDC1 = molecular target: T5, Hexokinase HKDC1 (Homo sapiens, UniProt Q2TB90); experiment: HKDC1 hexokinase inhibitors, dose response, biochemical, W721R variant (AID 504729); assay type: functional
# T5 sequence (Q2TB90 whole entry): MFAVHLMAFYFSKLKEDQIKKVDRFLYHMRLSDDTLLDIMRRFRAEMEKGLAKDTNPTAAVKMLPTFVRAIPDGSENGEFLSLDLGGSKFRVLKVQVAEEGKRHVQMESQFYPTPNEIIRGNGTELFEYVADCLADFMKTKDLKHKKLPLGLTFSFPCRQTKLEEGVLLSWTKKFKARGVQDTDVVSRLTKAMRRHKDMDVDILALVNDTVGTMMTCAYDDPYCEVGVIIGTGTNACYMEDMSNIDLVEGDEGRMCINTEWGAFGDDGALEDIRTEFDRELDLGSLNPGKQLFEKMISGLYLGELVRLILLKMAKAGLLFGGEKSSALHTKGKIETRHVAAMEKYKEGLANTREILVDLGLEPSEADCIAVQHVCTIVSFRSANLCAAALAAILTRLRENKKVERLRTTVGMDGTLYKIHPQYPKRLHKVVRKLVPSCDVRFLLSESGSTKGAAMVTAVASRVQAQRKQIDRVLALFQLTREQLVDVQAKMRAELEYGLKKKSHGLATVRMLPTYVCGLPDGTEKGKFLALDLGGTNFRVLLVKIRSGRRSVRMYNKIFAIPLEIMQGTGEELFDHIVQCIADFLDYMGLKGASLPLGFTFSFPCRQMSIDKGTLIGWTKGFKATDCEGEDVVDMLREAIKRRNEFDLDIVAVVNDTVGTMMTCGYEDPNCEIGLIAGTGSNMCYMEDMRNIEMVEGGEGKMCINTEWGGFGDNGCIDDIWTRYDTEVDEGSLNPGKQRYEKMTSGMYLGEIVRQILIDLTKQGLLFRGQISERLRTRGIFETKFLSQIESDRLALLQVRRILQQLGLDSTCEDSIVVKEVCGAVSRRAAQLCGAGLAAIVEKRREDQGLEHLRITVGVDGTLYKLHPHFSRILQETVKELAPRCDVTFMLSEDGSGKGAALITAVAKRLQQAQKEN
compound,measurement,setting,value
O=C1c2ccccc2C(=O)c2cc(S(=O)(=O)Nc3ccccc3)ccc21,EC50,Protein RecA,12.1 µM (active)
same,AC50,[1],29.8 µM (active)
same,EC50,[2],> 104 µM (inactive)
CC(C)(C)C(=O)/C(=C/c1ccncc1)n1cncn1,IC50,Interleukin-8 [3],0.607 µM (active)
same,IC50,Interleukin-8 [4],1.25 µM (active)
same,AC50,[5],6.63 µM (active)
same,AC50,[6],3.27 µM (active)
same,IC50,[7],> 80 µM (inactive)
same,AC50,[8],7.23 µM (active)
same,AC50,[9],16.8 µM (active)
Cc1cc(N2CCN(C(=O)Oc3ccc(-c4ccccc4)cn3)CC2)c2ccccc2n1,IC50,[10],0.031 µM (active)
same,IC50,[11],> 69.4 µM (inactive)
same,IC50,[12],0.006 µM (active)
same,IC50,[13],> 69.4 µM (inactive)
"NC1=CC(=O)C(=O)c2ccccc21 [4-AMINO-[1,2]NAPHTHOQUINONE]",AC50,[14],107 µM (active)
same,AC50,[15],1.74 µM (active)
same,IC50,Hexokinase HKDC1,34 µM (inactive)
